Data: patent publication US9187464B2, “TRPV4 antagonists” (GlaxoSmithKline Intellectual Property (No. 2) Limited, priority 2011, dated 2015)

Molecular target: T1, human TRPV4 (Homo sapiens, UniProt Q9HBA0)
T1 construct: expressed in transfected cells; host or cells: HEK-293-MSR-II cells transduced with 1% BacMam virus
Assay: Ligand-gated assay (Fluo4 calcium, FLIPR; inhibition of agonist-induced activation)
Format: cell-based
Settings: HEK-293-MSR-II cells transduced with BacMam human TRPV4; agonist at EC80
Experimental: TRP channel activation/opening results in an influx of divalent and monovalent cations including calcium. The resulting changes in intracellular calcium were monitored using a calcium selective fluorescent dye Fluo4 (MDS Analytical Technologies). Dye loaded cells were initially exposed to test compound to verify a lack of agonist activity. Cells were subsequently activated by addition of an agonist and inhibition of the agonist-induced activation was recorded. Human embryonic kidney 293 cells stably expressing the macrophage scavenger receptor class II (HEK-293-MSR-II) and transduced with 1% BacMam (J. P. Condreay, S. M. Witherspoon, W. C. Clay and T. A. Kost, Proc Natl Acad Sci 96 (1999), pp. 127-132) virus expressing the human TRPV4 gene were plated at 15000 cells/well in a volume of 50 μL in a 384 well poly-D lysine coated plate. Cells were incubated for 24 hours at 37 degrees and 5% CO2. Media was then aspirated using a Tecan Plate-washer and replaced with 20 μL of dye loading buffer: HBSS, 500 uM Brilliant Black (MDS Analytical Technologies), 2 uM Fluo-4. Dye loaded plates were then incubated in the dark at room temperature for 1-1.5 hours. 10 μL of test compound diluted in HBSS (HBSS with 1.5 mM Calcium Chloride, 1.5 mM Magnesium Chloride and 10 mM HEPES. pH 7.4), +0.01% Chaps was added to the plate, incubated for 10 min at room temperature in the dark and then 10 μL of agonist was added at a final concentration equal to the agonist EC80. Calcium release was measured using the FLIPRtetra (MDS Analytical Technologies) or FLIPR384 (MDS Analytical Technologies).
IC50 between 0.1-10 nM (+++), >10-50 nM (++), >50-500 nM (+).

T1 sequence (Q9HBA0 whole entry): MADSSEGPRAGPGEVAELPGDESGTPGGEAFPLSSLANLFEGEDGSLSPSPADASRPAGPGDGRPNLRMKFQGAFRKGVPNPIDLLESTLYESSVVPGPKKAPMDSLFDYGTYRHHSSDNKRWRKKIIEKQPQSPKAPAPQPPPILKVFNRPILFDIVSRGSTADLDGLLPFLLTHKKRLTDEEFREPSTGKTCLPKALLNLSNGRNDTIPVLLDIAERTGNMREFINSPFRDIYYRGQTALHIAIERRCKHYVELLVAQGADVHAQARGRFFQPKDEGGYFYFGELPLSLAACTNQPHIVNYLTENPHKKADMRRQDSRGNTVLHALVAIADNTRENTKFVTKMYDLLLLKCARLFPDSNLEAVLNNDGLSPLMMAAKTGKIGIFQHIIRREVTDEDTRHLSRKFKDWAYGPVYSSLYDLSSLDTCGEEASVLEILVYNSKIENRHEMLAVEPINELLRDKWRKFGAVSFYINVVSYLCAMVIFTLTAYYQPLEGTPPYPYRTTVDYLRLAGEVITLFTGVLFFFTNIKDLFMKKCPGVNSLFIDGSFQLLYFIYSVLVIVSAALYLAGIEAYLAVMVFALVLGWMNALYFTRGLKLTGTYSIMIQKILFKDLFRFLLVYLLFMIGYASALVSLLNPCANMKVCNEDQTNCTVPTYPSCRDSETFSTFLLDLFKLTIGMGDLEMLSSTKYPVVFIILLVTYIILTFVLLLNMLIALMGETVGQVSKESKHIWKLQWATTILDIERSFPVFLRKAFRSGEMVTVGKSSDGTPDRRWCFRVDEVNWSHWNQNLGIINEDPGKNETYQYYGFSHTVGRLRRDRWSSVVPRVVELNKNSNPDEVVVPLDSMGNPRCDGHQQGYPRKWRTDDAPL

Row | Structure (SMILES) | IC50 [nM]
1 | Cc1cc(N2CCOCC2)ncc1N1C[C@@]2(CCC[C@](C)(Cn3cnc4ccc(C#N)cc43)C2)OC1=O [Example 166, 1-(((5S,7S)-7-methyl-3-(4-methyl-6-morpholinopyridin-3-yl)-2-oxo-1-oxa-3-azaspiro[4.5]decan-7-yl)methyl)-1H-benzo[d]imidazole-6-carbonitrile] | 0.1 to 10
2 | CC(C)(C#N)c1noc(N2C[C@@]3(CCC[C@](C)(Cn4cnc5ccc(C#N)cc54)C3)OC2=O)c1Cl [Example 107, 1-(((5S,7S)-3-(4-chloro-3-(2-cyanopropan-2-yl)isoxazol-5-yl)-7-methyl-2-oxo-1-oxa-3-azaspiro[4.5]decan-7-yl)methyl)-1H-benzo[d]imidazole-6-carbonitrile] | 0.1 to 10
3 | Cn1nc(CN2C[C@@]3(CCC[C@H](Cn4cnc5ccc(C#N)cc54)C3)OC2=O)cc1-c1ccccc1 [Example 69, 1-({(5S,7S)-3-[(1-methyl-5-phenyl-1H-pyrazol-3-yl)methyl]-2-oxo-1-oxa-3-azaspiro[4.5]dec-7-yl}methyl)-1H-benzimidazole-6-carbonitrile] | 50 to 500
4 | N#Cc1ccc2ncn(C[C@H]3CCC[C@]4(C3)CN(Cc3cn(-c5cccc(Cl)c5)nn3)C(=O)O4)c2c1 [Example 90, 1-[((5S,7S)-3-{[1-(3-chlorophenyl)-1H-1,2,3-triazol-4-yl]methyl}-2-oxo-1-oxa-3-azaspiro[4.5]dec-7-yl)methyl]-1H-benzimidazole-6-carbonitrile] | 0.1 to 10
5 | CC(C)(C)c1ncc(N2C[C@@]3(CCC[C@](C)(Cn4cnc5ccc(C#N)cc54)C3)OC2=O)cn1 [Example 134, 1-(((5S,7S)-3-(2-(tert-butyl)pyrimidin-5-yl)-7-methyl-2-oxo-1-oxa-3-azaspiro[4.5]decan-7-yl)methyl)-1H-benzo[d]imidazole-6-carbonitrile] | 0.1 to 10
6 | C[C@]1(Cn2cnc3ccc(C#N)cc32)CCC[C@@]2(CN(c3ncc(C(F)(F)F)cn3)C(=O)O2)C1 [Example 54, 1-(((5S,7S)-7-methyl-2-oxo-3-(5-(trifluoromethyl)pyrimidin-2-yl)-1-oxa-3-azaspiro[4.5]decan-7-yl)methyl)-1H-benzo[d]imidazole-6-carbonitrile] | 50 to 500
7 | Cc1cc(Cl)ncc1N1C[C@@]2(CCC[C@H](Cn3cnc4ccc(C#N)cc43)C2)OC1=O [Example 120, 1-(((5S,7S)-3-(6-chloro-4-methylpyridin-3-yl)-2-oxo-1-oxa-3-azaspiro[4.5]decan-7-yl)methyl)-1H-benzo[d]imidazole-6-carbonitrile] | 0.1 to 10
8 | N#Cc1ccc2nc(C(F)(F)F)n(C[C@H]3CCC[C@]4(C3)CN(Cc3csc5ccc(Cl)cc35)C(=O)O4)c2c1 (stereo in doubt) [Example 60, 1-({3-[(5-chloro-1-benzothien-3-yl)methyl]-2-oxo-1-oxa-3-azaspiro[4.5]dec-7-yl}methyl)-2-(trifluoromethyl)-1H-benzimidazole-6-carbonitrile] | 50 to 500
9 | COC(C)(C)c1ccc(N2C[C@@]3(CCC[C@](C)(Cn4cnc5ccc(C#N)cc54)C3)OC2=O)cn1 [Example 55, 1-(((5S,7S)-3-(6-(2-methoxypropan-2-yl)pyridin-3-yl)-7-methyl-2-oxo-1-oxa-3-azaspiro[4.5]decan-7-yl)methyl)-1H-benzo[d]imidazole-6-carbonitrile] | 0.1 to 10
10 | CCOc1ccc(N2C[C@@]3(CCC[C@](C)(Cn4cnc5ccc(C#N)cc54)C3)OC2=O)cn1 [Example 12, ′1-({(5S,7S)-3-[6-(Ethyloxy)-3-pyridinyl]-7-methyl-2-oxo-1-oxa-3-azaspiro[4.5]dec-7-yl}methyl)-1H-benzimidazole-6-carbonitrile] | 0.1 to 10
11 | Cc1cc(-c2ccc(F)cn2)ncc1N1C[C@@]2(CCC[C@](C)(Cn3cnc4ccc(C#N)cc43)C2)OC1=O [Example 165, 1-(((5S,7S)-3-(5′-fluoro-4-methyl-[2,2′-bipyridin]-5-yl)-7-methyl-2-oxo-1-oxa-3-azaspiro[4.5]decan-7-yl)methyl)-1H-benzo[d]imidazole-6-carbonitrile] | 0.1 to 10
12 | COc1cc(Cl)ncc1N1C[C@@]2(CCC[C@](C)(Cn3cnc4ccc(C#N)cc43)C2)OC1=O [Example 122, 1-(((5S,7S)-3-(6-chloro-4-methoxypyridin-3-yl)-7-methyl-2-oxo-1-oxa-3-azaspiro[4.5]decan-7-yl)methyl)-1H-benzo[d]imidazole-6-carbonitrile] | 0.1 to 10
13 | CC(C)(O)c1cnc(N2C[C@@]3(CCC[C@](C)(Cn4cnc5ccc(C#N)cc54)C3)OC2=O)cn1 [Example 147, 1-(((5S,7S)-3-(5-(2-hydroxypropan-2-yl)pyrazin-2-yl)-7-methyl-2-oxo-1-oxa-3-azaspiro[4.5]decan-7-yl)methyl)-1H-benzo[d]imidazole-6-carbonitrile] | 0.1 to 10
14 | Cc1cnc(N2C[C@@]3(CCC[C@](C)(Cn4cnc5ccc(C#N)cc54)C3)OC2=O)cn1 [Example 117, 1-(((5S,7S)-7-methyl-3-(5-methylpyrazin-2-yl)-2-oxo-1-oxa-3-azaspiro[4.5]decan-7-yl)methyl)-1H-benzo[d]imidazole-6-carbonitrile] | 50 to 500
15 | COc1cc(C)c(N2C[C@@]3(CCC[C@](C)(Cn4cnc5ccc(C#N)cc54)C3)OC2=O)cn1 [Example 15, 1-(((5S,7S)-3-(6-Methoxy-4-methylpyridin-3-yl)-7-methyl-2-oxo-1-oxa-3-azasbiro[4.5]decan-7-yl)methyl)-1H-benzo[d]imidazole-6-carbonitrile] | 0.1 to 10
16 | N#Cc1cc(Cl)c2ncn(C[C@H]3CCC[C@]4(C3)CN(CC3(c5nc(-c6ccccc6)no5)CCOCC3)C(=O)O4)c2c1 [Example 84, 4-chloro-1-[((5S,7S)-2-oxo-3-{[4-(3-phenyl-1,2,4-oxadiazol-5-yl)tetrahydro-2H-pyran-4-yl]methyl}-1-oxa-3-azaspiro[4.5]dec-7-yl)methyl]-1H-benzimidazole-6-carbonitrile] | 0.1 to 10
17 | N#Cc1ccc2ncn(C[C@H]3CCC[C@]4(C3)CN(Cc3cn(-c5ccc(C(F)(F)F)cc5)nn3)C(=O)O4)c2c1 [Example 102, 1-{[(5S,7S)-2-oxo-3-({1-[4-(trifluoromethyl)phenyl]-1H-1,2,3-triazol-4-yl}methyl)-1-oxa-3-azaspiro[4.5]dec-7-yl]methyl}-1H-benzimidazole-6-carbonitrile] | 0.1 to 10
18 | C[C@]1(Cn2cnc3ccc(C#N)cc32)CCC[C@@]2(CN(c3ncc(Cl)cc3F)C(=O)O2)C1 [Example 114, 1-(((5S,7S)-3-(5-chloro-3-fluoropyridin-2-yl)-7-methyl-2-oxo-1-oxa-3-azaspiro[4.5]decan-7-yl)methyl)-1H-benzo[d]imidazole-6-carbonitrile] | 0.1 to 10
19 | CC(C)(C)c1noc(N2C[C@@]3(CCC[C@H](Cn4cnc5ccc(C#N)cc54)C3)OC2=O)c1F [Example 47, 1-(((5S,7S)-3-(3-(tert-butyl)-4-fluoroisoxazol-5-yl)-2-oxo-1-oxa-3-azaspiro[4.5]decan-7-yl)methyl)-1H-benzo[d]imidazole-6-carbonitrile] | 0.1 to 10
20 | Cc1cc(Cl)ncc1N1C[C@@]2(CCC[C@](C)(Cn3cnc4ccc(C#N)cc43)C2)OC1=O [Example 119, 1-(((5S,7S)-3-(6-chloro-4-methylpyridin-3-yl)-7-methyl-2-oxo-1-oxa-3-azaspiro[4.5]decan-7-yl)methyl)-1H-benzo[d]imidazole-6-carbonitrile] | 0.1 to 10
21 | COc1cc(C)c(N2C[C@@]3(CCC[C@](CO)(Cn4cnc5ccc(C#N)cc54)C3)OC2=O)cn1 [Example 143, 1-((7-(hydroxymethyl)-3-(6-methoxy-4-methylpyridin-3-yl)-2-oxo-1-oxa-3-azaspiro[4.5]decan-7-yl)methyl)-1H-benzo[d]imidazole-6-carbonitrile] | 10 to 50
22 | COCCOC(C)(C)c1cnc(N2C[C@@]3(CCC[C@](C)(Cn4cnc5ccc(C#N)cc54)C3)OC2=O)cn1 [Example 163, 1-(((5S,7S)-3-(5-(2-(2-methoxyethoxy)propan-2-yl)pyrazin-2-yl)-7-methyl-2-oxo-1-oxa-3-azaspiro[4.5]decan-7-yl)methyl)-1H-benzo[d]imidazole-6-carbonitrile] | 0.1 to 10
23 | Cc1cnc(N2C[C@@]3(CCC[C@](C)(Cn4cnc5ccc(C#N)cc54)C3)OC2=O)c(Cl)c1 [Example 128, 1-(((5S,7S)-3-(3-chloro-5-methylpyridin-2-yl)-7-methyl-2-oxo-1-oxa-3-azaspiro[4.5]decan-7-yl)methyl)-1H-benzo[d]imidazole-6-carbonitrile] | 0.1 to 10
24 | C[C@]1(Cn2cnc3ccc(C#N)cc32)CCCC2(CN(Cc3cc(F)ccn3)C(=O)O2)C1 (stereo in doubt) [Example 158, 1-(((5S,7S)-3-((4-fluoropyridin-2-yl)methyl)-7-methyl-2-oxo-1-oxa-3-azaspiro[4.5]decan-7-yl)methyl)-1H-benzo[d]imidazole-6-carbonitrile] | 0.1 to 10
25 | N#Cc1ccc2ncn(C[C@H]3CCC[C@]4(C3)CN(Cc3csc5ccc(Cl)cc35)C(=O)O4)c2c1 [Example 27, 1-({(5S,7S)-3-[(5-Chloro-1-benzothien-3-yl)methyl]-2-oxo-1-oxa-3-azaspiro[4.5]dec-7-yl}methyl)-1H-benzimidazole-6-carbonitrile] | 0.1 to 10
